{"source": "ChEMBL document CHEMBL3774338", "about": "(J Med Chem, 2016)", "test": "Chemical stability assessed as oxidation mediated drug degradation at room temperature exposed to air by mass spectrometric analysis", "format": "physicochemical"}
{"smiles": "O=c1[nH]cnc2c(-n3cc(CCN4CCC(c5cc(F)cc(F)c5)CC4)cn3)nccc12", "values": [{"measurement": "Stability", "value": "Unstable"}]}
